According to patent US4994258A, “Gamma emitting, CCK-A antagonists for pancreatic imaging” (Merck & Co., Inc., priority 1990, dated 1991):

How the values were obtained:
[1] = mice; cited from earlier work
[2] = biological target: T1, CCK-A receptor from rat pancreas (Rattus norvegicus, UniProt P30551); assay: In vitro binding assay, saturation studies with radioligand, rat pancreas
T1 construct: Pancreatae were removed from either rats or rabbits immediately after euthanasia; from tissue; host or cells: rat pancreas homogenate
T1 sequence (P30551 1-444): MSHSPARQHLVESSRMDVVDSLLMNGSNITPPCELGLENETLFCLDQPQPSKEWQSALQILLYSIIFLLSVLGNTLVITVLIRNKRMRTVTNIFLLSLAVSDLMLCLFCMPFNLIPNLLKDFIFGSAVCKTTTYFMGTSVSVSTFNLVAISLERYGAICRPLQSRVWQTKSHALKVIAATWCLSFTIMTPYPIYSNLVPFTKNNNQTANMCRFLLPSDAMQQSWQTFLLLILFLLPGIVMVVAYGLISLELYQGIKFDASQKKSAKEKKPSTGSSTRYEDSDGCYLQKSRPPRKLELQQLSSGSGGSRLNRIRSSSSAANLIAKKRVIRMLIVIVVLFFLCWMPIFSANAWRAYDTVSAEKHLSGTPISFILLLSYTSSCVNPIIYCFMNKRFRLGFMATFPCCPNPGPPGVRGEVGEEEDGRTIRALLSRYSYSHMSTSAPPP
Description: Pancreatae were removed from either rats or rabbits immediately after euthanasia and placed in ice-cold buffer (50 mM Tris·HCl (pH 7.4), 5 mM MgCl2, 5 mM DTT, 2 mg/ml BSA and 0.14 mg/ml bacitracin). The tissue (0.5 g pancreas) was homogenized in 200 ml of the ice-cold Tris buffer. Aliquots (0.1 ml) were added to various concentrations of radioligand (5 ml) in Tris buffer, incubated for 60 min at ambient temperatures, and filtered over GC-filters. After washing with ice cold Tris buffer (2×5 ml), the filters were air dried and counted in 10 ml of liquid scintillation cocktail (PCS, Amersham) in a Beckman LSC-5000. Data were converted to Molar concentrations and analyzed via SCAFIT, and data are presented by the method of Scatchard. The specific activity of the radioiodinated product was determined as that which provided the same concentration of receptor as obtained with the tritiated ligand.

[3] = In vivo distribution after coinjection of unlabeled carboxamide (receptor-mediated binding); design: species or system rats; details: rat, iv
Description: (§1) Animals were euthanized at various times (15 min to 2 hr), and organs of interest removed for assay. […] […] Liquid scintillation cocktail was added and the samples were dark adapted for 16 hours, then counted in a liquid scintillation counter with automatic quench correction. Results were the average of at least five animals and were expressed as % dose/g (wet weight).

CCK-A receptors [4] = assay: as above; design: species or system rats
Description: as §1

[5] = In vivo distribution necropsy after i.v. injection; design: species or system rats
Description: (§2) Animals were euthanized at various times (15 min to 2 hr), and organs of interest removed for assay. Biopsy samples were counted in an autogamma counter (50% counting efficiency) for ^123 I labeled radioligand. For the tritiated radioligand, in rats and rabbits, 10 to 50 mg samples of pancreas and, in rats, several regions of CNS (cortex, interpeduncular nucleus, and substantial nigra) were solubilized in protosol® (New England Nuclear). Liquid scintillation cocktail was added and the samples were dark adapted for 16 hours, then counted in a liquid scintillation counter with automatic quench correction. Results were the average of at least five animals and were expressed as % dose/g (wet weight).

CCK-A receptors [6] = system: CCK-A receptors; design: species or system rats; details: rat, in vivo, iv
Description: Rats under ketamine/acepromazine anesthesia were positioned for either anterior or posterior dynamic (128×128×16) images. A large-field-of-view gamma camera with a low energy, all purpose collimator, peaked for ^123 I, was utilized. Thirty one-minute images were acquired immediately post intravenous administration of 0.2 mCi of [^123 I]3(S)-1,3-dihydro-3-(4-iodobenzoylamino)-1-methyl -5-phenyl-2H-1,4-benzodiazepin-2-one. To enable visualization of the liver alone, an unblocked rat was injected with 0.125 mCi of ^99m Tc-albumin colloid. A static one-minute image (128×128×16) was obtained then, without moving the animal, the dose of [^123 I]3(S)-1,3-dihydro-3-(4-iodobenzoylamino) -1-methyl-5-phenyl-2H-1,4-benzodiazepin-2-one was injected and imaging proceeded as described. Rabbits and African green monkeys under ketamine/ xylazine anesthesia were positioned for an anterior view and imaged as the rats were after an intravenous injection of 0.5 mCi of [^123 I] (S)-1,3-dihydro-3-(4-iodobenzoylamino) -1-methyl-5-phenyl-2H-1,4-benzodiazepin-2-one for rabbits, and 1.3 mCi for monkeys.
All blocked studies utilized a coinjection of 1 mg/kg of (R)-N-(2,3-dihydro-1-methyl-2-oxo-5-phenyl-1H-1, 4-benzodiazepin-3-yl)-1H-indole-2-carboxamide. […] Reduced data were expressed as count rates in regions of interest (ROI) as a function of time.

[7] = cited from earlier work
CCK-A receptors [8] = details: mice, ^3 H and ^11 C labeled, high specific activity, 4 hours post intravenous injection; cited from earlier work
[9] = In vivo distribution of tritiated radioligand in pancreas; details: in vivo, iv
Description: as §2

CCK-A receptors [10] = assay: as above; details: pancreas, tritiated radioligand
Description: as §2

Structure (SMILES): Cc1cc([131I])cc(CN(C)CCCN(C)C)c1O [[^131 I]HIPDM, [^131 I]N, N, N'-trimethyl-N'-(2-hydroxy-3-methyl-5-iodobenzyl)-1,3-propanediamine]
- localization in the pancreas [1]: localizes in the pancreas

Structure (SMILES): CN1C(=O)[C@@H](NC(=O)c2ccc([123I])cc2)N=C(c2ccccc2)c2ccccc21 [[^123 I]3(S)-1,3-Dihydro-3-(4-iodobenzoylamino)-1-methyl-5-phenyl-2 H-1,4-benzodiazepin-2-one]
- affinity for the CCK-A receptor relative to [^3 H](R)-N-(2,3 dihydro-1-methyl-2-oxo-5-phenyl-1H-1,4-benzodiazepin-3-yl)-1H-indole-2-carboxamide (fold lower) [2]: 3 -fold lower
- tissue uptake at 0.5 h ([3]; blood, 0.4 mg/kg, blood, 30 min post-i.v. coinjection of 10 μCi with 0.4 mg/kg (R)-indole-2-carboxamide, 95% confidence intervals (Table 5), read-out: % DOSE/GRAM, Blood, coinjection): 0.236 ± 0.03 %ID/g
- tissue uptake at 0.5 h ([3]; P. Sphincter (pyloric), 30 min post-i.v. coinjection of 10 μCi with 0.4 mg/kg (R)-indole-2-carboxamide, 95% confidence intervals (Table 5), read-out: % DOSE/GRAM, P. Sphincter, coinjection): 0.705 ± 0.19 %ID/g
- tissue uptake at 0.5 h ([3]; descending colon, 30 min post-i.v. coinjection of 10 μCi with 0.4 mg/kg (R)-indole-2-carboxamide, 95% confidence intervals (Table 5), read-out: % DOSE/GRAM, Descending Colon, coinjection): 0.434 ± 0.12 %ID/g
- tissue uptake at 0.5 h ([3]; sigmoidal colon, 30 min post-i.v. coinjection of 10 μCi with 0.4 mg/kg (R)-indole-2-carboxamide, 95% confidence intervals (Table 5), read-out: % DOSE/GRAM, Sigmoidal Colon, coinjection): 0.6 ± 0.47 %ID/g
- tissue uptake at 0.5 h ([3]; transverse colon, 30 min post-i.v. coinjection of 10 μCi with 0.4 mg/kg (R)-indole-2-carboxamide, 95% confidence intervals (Table 5), read-out: % DOSE/GRAM, Transverse Colon, coinjection): 0.384 ± 0.06 %ID/g
- tissue uptake at 0.5 h ([3]; liver, 0.4 mg/kg, liver, 30 min post-i.v. coinjection of 10 μCi with 0.4 mg/kg (R)-indole-2-carboxamide, 95% confidence intervals (Table 5), read-out: % DOSE/GRAM, Liver, coinjection): 1.69 ± 0.39 %ID/g
- tissue uptake at 0.5 h ([3]; muscle, 0.4 mg/kg, muscle, 30 min post-i.v. coinjection of 10 μCi with 0.4 mg/kg (R)-indole-2-carboxamide, 95% confidence intervals (Table 5), read-out: % DOSE/GRAM, Muscle, coinjection): 0.271 ± 0.04 %ID/g
- tissue uptake at 0.25 h ([3]; pancreas, 0.4 mg/kg, pancreas, 15 min, i.v. coinjection with 0.4 mg/kg (R)-indole-2-carboxamide, 95% confidence intervals (Table 3), read-out: % DOSE/GRAM in rat pancreas, coinjection): 0.574 ± 0.065 %ID/g
- tissue uptake at 0.5 h ([3]; pancreas, 0.4 mg/kg, pancreas, 30 min, i.v. coinjection with 0.4 mg/kg (R)-indole-2-carboxamide, 95% confidence intervals (Table 3), read-out: % DOSE/GRAM in rat pancreas, coinjection): 0.727 ± 0.18 %ID/g
- tissue uptake at 0.5 h ([3]; pancreas, 0.4 mg/kg, pancreas, 30 min post-i.v. coinjection of 10 μCi with 0.4 mg/kg (R)-indole-2-carboxamide, 95% confidence intervals (Table 5), read-out: % DOSE/GRAM, Pancreas, coinjection): 0.9 ± 0.22 %ID/g
- tissue uptake at 1 h ([3]; pancreas, 0.4 mg/kg, pancreas, 60 min, i.v. coinjection with 0.4 mg/kg (R)-indole-2-carboxamide, 95% confidence intervals (Table 3), read-out: % DOSE/GRAM in rat pancreas, coinjection): 0.472 ± 0.085 %ID/g
- specific localization in the region of the pyloric sphincter (CCK-A receptors [4]; rats): specific localization is obtained in the region of the pyloric sphincter
- blockade of localization in the duodenum and colon (CCK-A receptors [4]; rats, duodenum and colon): significant blockade of localization was not demonstrated
- tissue uptake at 0.5 h ([5]; rat, blood, iv, 10 uCi, blood, 30 min post-i.v. injection of 10 μCi, 95% confidence intervals (Table 4), read-out: % DOSE/GRAM, Blood): 0.307 ± 0.051 %ID/g
- tissue uptake at 0.5 h ([5]; rat, descending colon, iv, 10 uCi, descending colon, 30 min post-i.v. injection of 10 μCi, 95% confidence intervals (Table 4), read-out: % DOSE/GRAM, Descending Colon): 0.418 ± 0.073 %ID/g
- tissue uptake at 0.5 h ([5]; rat, liver, iv, 10 uCi, liver, 30 min post-i.v. injection of 10 μCi, 95% confidence intervals (Table 4), read-out: % DOSE/GRAM, Liver): 1.96 ± 0.56 %ID/g
- tissue uptake at 0.5 h ([5]; rat, muscle, iv, 10 uCi, muscle, 30 min post-i.v. injection of 10 μCi, 95% confidence intervals (Table 4), read-out: % DOSE/GRAM, Muscle): 0.319 ± 0.086 %ID/g
- tissue uptake at 0.25 h ([5]; rat, pancreas, iv, 10 uCi, pancreas, 15 min, i.v. injection, error range 95% confidence intervals (Table 2), read-out: % DOSE/GRAM in rat pancreas): 2.07 ± 0.46 %ID/g
- tissue uptake at 0.5 h ([5]; rat, pancreas, iv, 10 uCi, pancreas, 30 min, i.v. injection, error range 95% confidence intervals (Table 2), read-out: % DOSE/GRAM in rat pancreas): 1.9 ± 0.71 %ID/g
- tissue uptake at 0.5 h ([5]; rat, pancreas, iv, 10 uCi, pancreas, 30 min post-i.v. injection of 10 μCi, 95% confidence intervals (Table 4), read-out: % DOSE/GRAM, Pancreas): 2.54 ± 0.93 %ID/g
- tissue uptake at 1 h ([5]; rat, pancreas, iv, 10 uCi, pancreas, 60 min, i.v. injection, error range 95% confidence intervals (Table 2), read-out: % DOSE/GRAM in rat pancreas): 1.14 ± 0.13 %ID/g
- tissue uptake at 0.5 h ([5]; rat, pyloric sphincter, iv, 10 uCi, P. Sphincter (pyloric), 30 min post-i.v. injection of 10 μCi, 95% confidence intervals (Table 4), read-out: % DOSE/GRAM, P. Sphincter): 1.25 ± 0.33 %ID/g
- tissue uptake at 0.5 h ([5]; rat, sigmoidal colon, iv, 10 uCi, sigmoidal colon, 30 min post-i.v. injection of 10 μCi, 95% confidence intervals (Table 4), read-out: % DOSE/GRAM, Sigmoidal Colon): 0.5 ± 0.13 %ID/g
- tissue uptake at 0.5 h ([5]; rat, transverse colon, iv, 10 uCi, transverse colon, 30 min post-i.v. injection of 10 μCi, 95% confidence intervals (Table 4), read-out: % DOSE/GRAM, Transverse Colon): 0.5 ± 0.18 %ID/g
- ratio of activity in the pancreas to that in the blood and liver ([5]; rats): suggests sufficient localization to provide in vivo images of the pancreas
- localization in the pancreas (imaging and biopsied samples) (CCK-A receptors [6]): did localize in the pancreas by a receptor-mediated mechanism

Structure (SMILES): C[75Se]CC[C@H](N)C(=O)O [^75 Se-selenomethionine]
- biological clearance ([7]; in vivo): slow biological clearance
- tracer localizing in the pancreas ([7]; in vivo): 5-7%
- uptake in adjacent organs ([7]; primarily the liver): high uptake in adjacent organs, primarily the liver

Structure (SMILES): CN1C(=O)[C@H](NC(=O)c2cc3ccccc3[nH]2)N=C(c2ccccc2)c2ccccc21 [(R)-N-(2,3-dihydro-1-methyl-2-oxo-5-phenyl-1H-1,4-benzodiazepin-3-yl) -1H-indole-2-carboxamide, reference compound]
- reduction of localization (of the [^123 I] radioligand in rat pancreas) by coinjection (CCK-A receptors [4]; coinjection 0.4 mg/kg, rat pancreas (Table 3)): 60-70%

Structure (SMILES): CN1C(=O)[C@@H](NC(=O)c2cc3ccccc3[nH]2)N=C(c2ccccc2)c2ccccc21 [N-(2,3 Dihydro-1-methyl-2-oxo-5-phenyl-1H-1,4-benzodiazepine-3-yl) -1H-indole-2-carboxamide]
- localization in the pancreas (CCK-A receptors [8]): 76 % dose/gram

Structure (SMILES): CN1C(=O)C(NC(=O)c2cc3ccccc3[nH]2)N=C(c2ccccc2)c2ccccc21 (stereo in doubt) [[^3 H](R)-N-(2,3-dihydro-1-methyl-2-oxo-5-phenyl-1H-1,4-benzodiazepin-3-yl)-1H-indole-2-carboxamide]
- tissue uptake ([9]; 1 mg/kg): 0.25 %ID/g
- tissue uptake ([9]; 10 uCi): 2.1 %ID/g
- receptor-mediated part of localization in the pancreas (CCK-A receptors [10]): 90%
